This is an account of results in ChEMBL document CHEMBL2057193, “Preparation of 3-substituted-1-isopropyl-1H-pyrazolo[3,4-d]pyrimidin-4-amines as RET kinase inhibitors” (J Med Chem, 2012).

The pEC50 is the EC50 on a negative log10 scale, so that one unit is a factor of ten. Read a high pEC50 as a low EC50. What is called pIC50 is the negative decadic logarithm of the IC50, by convention in mol/L.

Molecules are shown by their SMILES. pEC50, pIC50: −log10 of the molar value. Active and inactive are the calls of the source. The rule behind the calls is not given here.

For data set [1], the system named is TPC1. Kind of data set: Antiproliferative activity against human TPC1 cells. The class given is functional, cell-based.
Data set [2] has as its target T1, Proto-oncogene tyrosine-protein kinase receptor Ret (Homo sapiens, UniProt P07949). The note with it: TPC1, 50 to 200 nM.
Description: Inhibition of RET in human TPC1 cells expressing constitutively active RET fusion protein assessed as reduction in ERK1/2 phosphorylation at 50 to 200 nM by Western blotting
Data set [3] addresses T2, Mitogen-activated protein kinase; ERK1/ERK2 (Homo sapiens) (UniProt P27361+P28482). Kind of data set: Inhibition of ERK1/2 phosphorylation in human HCT116 cells at 50 to 200 nM by Western blotting. The class given is cell-based. The note with it: HCT-116. (In western blotting, separated proteins are transferred to a membrane and probed.)
The subject of data set [4] is TPC1. Kind of data set: Toxicity in human TPC1 cells at =< 10 uM. It is filed as cell-based.
For data set [5], the system named is HCT-116. In words: Toxicity in human HCT116 cells at =< 10 uM. It is filed as cell-based.
Data set [6] concerns HCT-116. Kind of data set: Antiproliferative activity against human HCT116 cells at 1 uM. The class given is functional, cell-based.
The target in data set [7] is T2, Mitogen-activated protein kinase; ERK1/ERK2 (Homo sapiens). Kind of data set: Inhibition of nuclear translocation of ERK1/2 in human HCT116 cells at 200 nM by immunofluorescence microscopy. It is filed as cell-based. As to conditions: HCT-116.
The target of data set [8] is T1, Proto-oncogene tyrosine-protein kinase receptor Ret. The note with it: TPC1, 200 nM.
Description: Inhibition of RET in human TPC1 cells expressing constitutively active RET fusion protein assessed as reduction in nuclear translocation of ERK1/2 at 200 nM by immunofluorescence microscopy
For data set [9], the system named is TPC1. In words: Antiproliferative activity against human TPC1 cells at 1 uM. The class given is functional, cell-based.
The subject of data set [10] is HCT-116. Kind of data set: Antiproliferative activity against human HCT116 cells. The class given is functional, cell-based.
In data set [11] the target is T1, Proto-oncogene tyrosine-protein kinase receptor Ret. As to conditions: MCF7, 100 nM.
Description: Inhibition of RET in serum starved human MCF7 cells assessed as reduction in GDNF-induced ERK1/2 phosphorylation at 100 nM added 30 mins before GDNF stimulation and incubated for further 45 mins by Western blotting
For data set [12] the target is unchanged. In words: Inhibition of RET by commercial radiometric assay.

T1 sequence (P07949 whole entry): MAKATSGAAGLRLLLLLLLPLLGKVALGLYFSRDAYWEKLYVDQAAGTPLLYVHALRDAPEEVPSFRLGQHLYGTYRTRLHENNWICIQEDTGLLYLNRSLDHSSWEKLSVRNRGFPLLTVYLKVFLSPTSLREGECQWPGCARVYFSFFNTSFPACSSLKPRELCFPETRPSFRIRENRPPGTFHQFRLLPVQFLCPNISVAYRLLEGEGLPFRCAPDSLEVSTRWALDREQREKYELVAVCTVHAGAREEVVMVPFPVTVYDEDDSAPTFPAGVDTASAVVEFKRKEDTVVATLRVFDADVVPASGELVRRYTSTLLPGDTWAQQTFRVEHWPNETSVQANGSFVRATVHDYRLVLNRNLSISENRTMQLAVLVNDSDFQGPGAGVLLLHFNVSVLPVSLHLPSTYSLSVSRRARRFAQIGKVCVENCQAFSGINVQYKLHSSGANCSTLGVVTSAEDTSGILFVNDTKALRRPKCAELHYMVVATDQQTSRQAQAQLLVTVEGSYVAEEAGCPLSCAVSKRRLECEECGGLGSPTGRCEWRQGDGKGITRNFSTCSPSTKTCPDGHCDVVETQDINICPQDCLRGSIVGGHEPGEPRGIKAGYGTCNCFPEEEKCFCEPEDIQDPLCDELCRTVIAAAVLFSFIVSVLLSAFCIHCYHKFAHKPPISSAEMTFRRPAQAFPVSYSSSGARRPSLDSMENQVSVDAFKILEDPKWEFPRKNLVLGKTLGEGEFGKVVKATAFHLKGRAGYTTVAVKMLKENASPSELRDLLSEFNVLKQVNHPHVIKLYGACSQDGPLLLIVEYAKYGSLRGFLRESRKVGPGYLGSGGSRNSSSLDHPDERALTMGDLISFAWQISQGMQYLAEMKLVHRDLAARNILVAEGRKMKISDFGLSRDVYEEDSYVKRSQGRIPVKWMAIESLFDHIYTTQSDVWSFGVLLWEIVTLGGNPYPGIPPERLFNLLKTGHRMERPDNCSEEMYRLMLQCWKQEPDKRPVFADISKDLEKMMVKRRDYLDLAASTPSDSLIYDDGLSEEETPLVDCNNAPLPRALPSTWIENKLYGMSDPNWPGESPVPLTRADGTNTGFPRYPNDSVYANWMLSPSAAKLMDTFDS
T2 sequence (P27361 whole entry, looked up): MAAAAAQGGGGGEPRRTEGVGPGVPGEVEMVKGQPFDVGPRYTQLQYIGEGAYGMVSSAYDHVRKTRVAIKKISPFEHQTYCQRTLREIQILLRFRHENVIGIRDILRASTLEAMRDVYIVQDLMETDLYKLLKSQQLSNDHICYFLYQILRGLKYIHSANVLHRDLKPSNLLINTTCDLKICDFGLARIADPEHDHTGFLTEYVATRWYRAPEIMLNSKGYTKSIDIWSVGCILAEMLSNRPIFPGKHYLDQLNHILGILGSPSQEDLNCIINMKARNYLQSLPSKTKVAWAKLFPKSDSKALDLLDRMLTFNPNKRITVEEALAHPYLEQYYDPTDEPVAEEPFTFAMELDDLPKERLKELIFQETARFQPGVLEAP
T2 sequence (P28482 whole entry, looked up): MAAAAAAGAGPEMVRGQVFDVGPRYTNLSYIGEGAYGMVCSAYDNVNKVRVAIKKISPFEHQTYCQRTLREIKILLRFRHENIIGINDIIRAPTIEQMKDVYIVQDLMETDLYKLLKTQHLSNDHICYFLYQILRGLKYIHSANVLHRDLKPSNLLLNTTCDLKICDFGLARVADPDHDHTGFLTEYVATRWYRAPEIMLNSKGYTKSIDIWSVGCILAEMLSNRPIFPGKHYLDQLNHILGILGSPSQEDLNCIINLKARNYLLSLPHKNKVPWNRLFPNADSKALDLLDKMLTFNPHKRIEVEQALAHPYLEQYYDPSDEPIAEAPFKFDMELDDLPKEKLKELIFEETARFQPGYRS

With `CNC(=O)c1cc(Oc2ccc(NC(=O)Nc3ccc(Cl)c(C(F)(F)F)c3)cc2)ccn1` [SORAFENIB], the pEC50 in the data set on TPC1 [1] was 5.59.
As for `CC(C)n1nc(C#Cc2ccccc2)c2c(N)ncnc21`, the inhibition result (in data set [2]; in [8]; in the data set on TPC1 [9]; in data set [11]) was “Active” throughout. In addition, the inhibition entry (in [3]; in the data set on HCT-116 [6]; in data set [7]) was “inactive” each time. For the same compound, the Activity entry in the data set on TPC1 [4] and in the data set on HCT-116 [5] was “Non-toxic” in each case. The values for the pEC50 in the data set on HCT-116 [10] and in the data set on TPC1 [1] were 5.62 and 5.48, respectively. This compound gave a pIC50 in [12] of 8.10.
